Assay [1] deals with T1, Epidermal growth factor receptor (Homo sapiens, UniProt P00533).
Description: Inhibition of EGFR (unknown origin)
Assay [2] concerns the target Receptor tyrosine-protein kinase erbB-4 (Homo sapiens, UniProt Q15303). Description: Inhibition of HER4 (unknown origin).
Assay [3] concerns the target T2, Proto-oncogene tyrosine-protein kinase Src (Homo sapiens, UniProt P12931). Description: Inhibition of SRC (unknown origin).
Assay [4] concerns the target Vascular endothelial growth factor receptor 3 (Homo sapiens, UniProt P35916). The assay can be described thus: Inhibition of VEGFR3 (unknown origin).
For assay [5], the system named is Plasmodium falciparum. Description: Antimalarial activity against Plasmodium falciparum 3D7 infected in human erythrocytes after 72 hrs by SYBR Green1 dye based fluorescence assay relative to control. The class given is functional, organism-based. The settings on record: 3D7, 72 h.
In assay [6] the test system is Human betaherpesvirus 5. The assay can be described thus: Antiviral activity against recombinant HCMV AD169 infected in human foreskin fibroblasts measured after 7 days by GFP-based multi-round replication assay relative to control. Format: functional, organism-based. The settings on record: Human betaherpesvirus 5, AD169, 168 h.
Assay [7] concerns the target T2, Proto-oncogene tyrosine-protein kinase Src. Description: Inhibition of human recombinant Src expressed in baculovirus infected Sf9 insect cells assessed as reduction in phosphorylation of polyglutamic acid/tyrosine incubated for 15 mins by ELISA.
The target of assay [8] is T3, Aurora kinase A (Homo sapiens) (UniProt O14965).
T3 sequence (whole entry): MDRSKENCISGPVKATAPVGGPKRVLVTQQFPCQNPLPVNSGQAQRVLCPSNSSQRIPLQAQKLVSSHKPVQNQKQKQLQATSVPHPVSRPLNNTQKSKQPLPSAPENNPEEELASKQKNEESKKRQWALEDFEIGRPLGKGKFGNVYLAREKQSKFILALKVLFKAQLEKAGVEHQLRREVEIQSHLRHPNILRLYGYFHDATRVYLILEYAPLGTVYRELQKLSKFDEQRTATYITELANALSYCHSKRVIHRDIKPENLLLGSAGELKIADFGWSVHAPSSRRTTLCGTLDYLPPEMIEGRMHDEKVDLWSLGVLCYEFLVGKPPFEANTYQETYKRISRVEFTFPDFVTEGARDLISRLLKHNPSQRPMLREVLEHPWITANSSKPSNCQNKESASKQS
The assay can be described thus: Inhibition of Aurora A in human MCF7 cells relative to control. Format: cell-based. The settings on record: concentration not given here.

In assay [9] the target is Epidermal growth factor receptor (Homo sapiens, UniProt P00533, L858R/T790M). Description: Inhibition of human recombinant GST-tagged EGFR L858R/T790M mutant (catalytic domain 695 to end) expressed in baculovirus-infected Sf9 cells assessed as reduction in phosphorylation of polyglutamic acid/tyrosine incubated for 60 mins by ADP-Glo assay.
The target in assay [10] is T1, Epidermal growth factor receptor. The assay can be described thus: Inhibition of human recombinant GST-tagged EGFR (catalytic domain 695 to end) expressed in baculovirus-infected Sf9 cells assessed as reduction in phosphorylation of polyglutamic acid/tyrosine incubated for 60 mins by ADP-Glo assay. In general terms: ADP-Glo turns the ADP formed in a reaction into a luminescent signal.

Assay [11] in a line: Antiproliferative activity against human NHBE cells assessed as reduction in cell viability incubated for 72 hrs by MTT assay. The class given is cell-based. In general terms: Tetrazolium dyes change colour on reduction, which living cells bring about.
Assay [12] addresses Epidermal growth factor receptor (Homo sapiens, UniProt P00533, T790M). Description: Inhibition of EGFR T790M mutant (unknown origin).
Assay [13] in a line: Cytotoxicity against human EC1 cells assessed as reduction in cell growth at 2 nM incubated for 48 and 72 hrs by MTT assay. Format: functional.
The nature of assay [14]: Cytotoxicity against human HKESC1 cells assessed as reduction in cell growth at 2 nM incubated for 48 and 72 hrs by MTT assay. The class given is functional.
Assay [15] in a line: Cytotoxicity against human HKESC2 cells assessed as reduction in cell growth at 2 nM incubated for 48 and 72 hrs by MTT assay. The class given is functional.
Assay [16] in a line: Cytotoxicity against human KYSE10 cells assessed as reduction in cell growth at 2 nM incubated for 48 and 72 hrs by MTT assay. Format: functional.
Assay [17] can be described thus: Cytotoxicity against human SLMT1 cells assessed as reduction in cell growth at 2 nM incubated for 48 and 72 hrs by MTT assay. The class given is functional.
Assay [18] is described as follows: Cytotoxicity against human Embryonic stem cells assessed as reduction in cell growth at 2 nM incubated for 48 and 72 hrs by MTT assay. The class given is functional.
A short description of assay [19]: Antitumor activity against rat FRE-erbB2 cells xenografted in CD-1 mouse assessed as tumor growth inhibition at 50 mg/kg, po after 1 hr by ELISA relative to control. The settings on record: read-out: TGI. Format: functional. For orientation: ELISA stands for enzyme-linked immunosorbent assay.
The subject of assay [20] is DU-145. Description: Antitumor activity against human DU145 cells xenografted in CB17 SCID model mouse assessed as inhibition of tumor growth at 25 mg/kg, po administered for 54 days. The class given is functional. The arrangement: scale not given: the % may be the effect or the level left.
The target in assay [21] is T4, Vascular endothelial growth factor receptor 2 (Homo sapiens, UniProt P35968). Description: Inhibition of human recombinant GST-tagged VEGFR2 (catalytic domain 805 to 1356 residues) expressed in Sf9 insect cells incubated for 45 mins by Kinase-Glo assay.
T4 sequence (P35968 whole entry, the tested form may be a part): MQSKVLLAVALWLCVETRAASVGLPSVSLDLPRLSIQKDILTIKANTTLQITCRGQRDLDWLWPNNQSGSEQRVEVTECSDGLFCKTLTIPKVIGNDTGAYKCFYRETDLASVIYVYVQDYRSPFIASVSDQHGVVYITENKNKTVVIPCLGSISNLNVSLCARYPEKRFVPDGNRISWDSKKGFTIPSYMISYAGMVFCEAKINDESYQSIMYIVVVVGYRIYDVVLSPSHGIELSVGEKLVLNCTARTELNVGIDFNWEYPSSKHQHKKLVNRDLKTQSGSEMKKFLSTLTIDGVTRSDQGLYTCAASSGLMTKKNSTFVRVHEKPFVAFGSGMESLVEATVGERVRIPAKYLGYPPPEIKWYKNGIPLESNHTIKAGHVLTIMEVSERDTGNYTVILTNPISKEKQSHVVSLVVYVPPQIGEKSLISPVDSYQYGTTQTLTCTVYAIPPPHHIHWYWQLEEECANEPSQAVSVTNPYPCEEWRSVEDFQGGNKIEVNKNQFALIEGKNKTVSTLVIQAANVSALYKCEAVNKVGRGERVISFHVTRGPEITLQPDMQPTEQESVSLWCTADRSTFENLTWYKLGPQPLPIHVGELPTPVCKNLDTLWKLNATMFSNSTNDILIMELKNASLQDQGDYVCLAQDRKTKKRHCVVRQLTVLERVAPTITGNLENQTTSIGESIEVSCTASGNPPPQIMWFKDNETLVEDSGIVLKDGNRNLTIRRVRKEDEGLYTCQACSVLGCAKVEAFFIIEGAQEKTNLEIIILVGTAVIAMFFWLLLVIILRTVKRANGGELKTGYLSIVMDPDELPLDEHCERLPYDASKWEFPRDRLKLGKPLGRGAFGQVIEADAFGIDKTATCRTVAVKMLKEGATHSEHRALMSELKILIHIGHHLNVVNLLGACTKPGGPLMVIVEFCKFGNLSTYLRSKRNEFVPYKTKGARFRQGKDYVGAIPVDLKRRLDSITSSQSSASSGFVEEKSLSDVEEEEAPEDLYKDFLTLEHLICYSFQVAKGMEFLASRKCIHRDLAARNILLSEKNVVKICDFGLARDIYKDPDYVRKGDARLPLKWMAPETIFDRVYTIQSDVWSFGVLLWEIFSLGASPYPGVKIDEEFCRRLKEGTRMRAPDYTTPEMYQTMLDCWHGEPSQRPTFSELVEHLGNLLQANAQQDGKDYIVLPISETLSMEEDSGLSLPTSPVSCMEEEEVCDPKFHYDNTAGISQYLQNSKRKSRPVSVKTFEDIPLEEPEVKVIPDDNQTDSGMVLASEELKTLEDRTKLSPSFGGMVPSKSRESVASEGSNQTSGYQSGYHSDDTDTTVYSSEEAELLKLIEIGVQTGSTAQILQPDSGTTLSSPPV
In assay [22] the target is T4, Vascular endothelial growth factor receptor 2. Description: Inhibition of VEGFR2 in human HUVEC assessed as reduction in cell proliferation at 10 uM incubated for 72 hrs by alamarBlue assay. The class given is cell-based.
Assay [23] deals with A549. The assay can be described thus: In vivo inhibition of neo-vascularisation in human A549 cells xenografted in athymic mouse at 50 mg/kg/day, po administered for 5 days measured after 24 hrs of last dose by light microscopy. The class given is functional.
For assay [24], the target named is T4, Vascular endothelial growth factor receptor 2. The assay can be described thus: Inhibition of VEGFR2 (unknown origin).

The structures appear in SMILES notation.

T1 sequence (P00533 whole entry): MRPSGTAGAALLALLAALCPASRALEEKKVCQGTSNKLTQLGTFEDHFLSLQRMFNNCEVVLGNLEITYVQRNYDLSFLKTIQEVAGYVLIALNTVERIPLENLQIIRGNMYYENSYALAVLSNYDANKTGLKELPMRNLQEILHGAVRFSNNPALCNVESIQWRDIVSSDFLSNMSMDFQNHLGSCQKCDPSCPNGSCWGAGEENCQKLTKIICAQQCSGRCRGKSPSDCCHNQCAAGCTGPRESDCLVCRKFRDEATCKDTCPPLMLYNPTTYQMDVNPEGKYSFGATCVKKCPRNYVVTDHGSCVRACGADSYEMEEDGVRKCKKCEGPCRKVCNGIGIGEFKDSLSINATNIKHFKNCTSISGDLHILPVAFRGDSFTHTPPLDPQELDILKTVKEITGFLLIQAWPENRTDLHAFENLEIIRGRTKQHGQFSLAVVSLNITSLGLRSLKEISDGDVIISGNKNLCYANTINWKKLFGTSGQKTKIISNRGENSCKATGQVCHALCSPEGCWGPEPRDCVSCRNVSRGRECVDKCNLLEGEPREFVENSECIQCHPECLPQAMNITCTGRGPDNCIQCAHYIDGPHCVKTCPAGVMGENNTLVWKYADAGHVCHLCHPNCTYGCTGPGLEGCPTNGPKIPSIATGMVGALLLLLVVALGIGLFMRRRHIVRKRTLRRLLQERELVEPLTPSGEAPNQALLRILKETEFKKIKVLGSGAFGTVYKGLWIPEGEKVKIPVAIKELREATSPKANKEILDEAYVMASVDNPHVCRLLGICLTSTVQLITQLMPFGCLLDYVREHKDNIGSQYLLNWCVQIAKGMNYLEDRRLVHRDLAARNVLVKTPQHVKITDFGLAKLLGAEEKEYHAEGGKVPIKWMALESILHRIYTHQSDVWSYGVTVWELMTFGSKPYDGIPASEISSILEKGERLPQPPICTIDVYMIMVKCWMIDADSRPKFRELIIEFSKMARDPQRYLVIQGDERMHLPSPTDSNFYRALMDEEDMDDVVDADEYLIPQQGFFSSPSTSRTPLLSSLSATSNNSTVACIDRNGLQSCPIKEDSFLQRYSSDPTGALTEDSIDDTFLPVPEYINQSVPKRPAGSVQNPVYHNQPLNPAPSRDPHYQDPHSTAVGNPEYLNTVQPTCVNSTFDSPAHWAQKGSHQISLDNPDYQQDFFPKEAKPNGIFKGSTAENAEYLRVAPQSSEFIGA
T2 sequence (P12931 2-536 limits assumed): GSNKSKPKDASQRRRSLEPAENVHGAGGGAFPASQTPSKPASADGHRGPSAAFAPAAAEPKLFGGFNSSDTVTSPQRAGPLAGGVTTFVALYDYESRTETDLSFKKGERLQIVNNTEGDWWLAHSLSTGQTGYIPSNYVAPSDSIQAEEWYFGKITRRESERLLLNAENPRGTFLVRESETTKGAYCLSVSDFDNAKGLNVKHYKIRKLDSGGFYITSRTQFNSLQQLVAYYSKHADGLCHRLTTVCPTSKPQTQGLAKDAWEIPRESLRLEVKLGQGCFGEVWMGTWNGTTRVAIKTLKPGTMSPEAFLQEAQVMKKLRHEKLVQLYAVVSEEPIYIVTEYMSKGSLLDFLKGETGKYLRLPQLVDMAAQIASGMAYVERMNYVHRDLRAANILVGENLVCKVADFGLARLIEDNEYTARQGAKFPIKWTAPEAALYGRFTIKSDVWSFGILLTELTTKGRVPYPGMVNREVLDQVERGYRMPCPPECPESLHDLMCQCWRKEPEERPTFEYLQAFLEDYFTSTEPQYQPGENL
Sequence of Receptor tyrosine-protein kinase erbB-4 (Q15303 whole entry): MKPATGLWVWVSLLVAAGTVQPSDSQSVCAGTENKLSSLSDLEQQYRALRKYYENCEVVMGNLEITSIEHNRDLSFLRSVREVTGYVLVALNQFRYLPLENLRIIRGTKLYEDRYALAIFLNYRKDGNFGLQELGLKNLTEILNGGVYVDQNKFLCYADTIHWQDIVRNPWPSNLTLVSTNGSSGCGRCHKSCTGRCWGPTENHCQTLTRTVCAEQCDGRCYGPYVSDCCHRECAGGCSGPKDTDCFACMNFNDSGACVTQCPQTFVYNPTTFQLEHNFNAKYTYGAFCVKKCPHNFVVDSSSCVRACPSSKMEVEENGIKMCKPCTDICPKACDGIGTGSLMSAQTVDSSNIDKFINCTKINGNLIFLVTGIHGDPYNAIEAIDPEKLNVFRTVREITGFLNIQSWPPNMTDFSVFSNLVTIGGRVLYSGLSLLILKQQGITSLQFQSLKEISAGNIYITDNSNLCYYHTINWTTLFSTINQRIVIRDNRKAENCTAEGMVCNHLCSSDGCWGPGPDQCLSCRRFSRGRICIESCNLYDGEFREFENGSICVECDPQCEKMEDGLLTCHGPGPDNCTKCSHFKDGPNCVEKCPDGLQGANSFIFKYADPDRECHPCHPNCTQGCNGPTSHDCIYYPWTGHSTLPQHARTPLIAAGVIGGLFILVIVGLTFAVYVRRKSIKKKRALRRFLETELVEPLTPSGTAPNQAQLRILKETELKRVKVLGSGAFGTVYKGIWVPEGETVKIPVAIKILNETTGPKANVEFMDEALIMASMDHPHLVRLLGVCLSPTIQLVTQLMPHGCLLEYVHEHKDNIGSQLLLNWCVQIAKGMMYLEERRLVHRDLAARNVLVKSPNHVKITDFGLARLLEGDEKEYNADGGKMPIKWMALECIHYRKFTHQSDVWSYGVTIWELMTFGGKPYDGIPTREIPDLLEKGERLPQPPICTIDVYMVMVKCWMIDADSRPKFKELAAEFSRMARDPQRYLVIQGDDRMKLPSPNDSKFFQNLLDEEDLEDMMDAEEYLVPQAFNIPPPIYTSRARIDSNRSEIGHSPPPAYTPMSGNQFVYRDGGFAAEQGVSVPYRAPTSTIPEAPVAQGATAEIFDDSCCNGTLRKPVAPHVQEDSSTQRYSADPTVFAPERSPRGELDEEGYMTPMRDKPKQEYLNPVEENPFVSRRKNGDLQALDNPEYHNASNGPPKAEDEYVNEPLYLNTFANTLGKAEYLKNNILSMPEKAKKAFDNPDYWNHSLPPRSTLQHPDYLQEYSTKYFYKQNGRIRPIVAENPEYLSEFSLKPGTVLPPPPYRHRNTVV

For the compound `COc1cc2ncnc3c2cc1OCCCCCN(C)Cc1ccc(Br)cc1N3` [JNJ-26483327], the 50% inhibitory concentration (IC50) in assay [1] was under 10 nM; in [2], 11 to 99 nM; in assay [3], 11 to 99 nM; in assay [4] it was 11 to 99 nM.
Regarding `C[C@H]1[C@H](OC(=O)CCC(=O)Nc2ccc3ncnc(Nc4ccc(Cl)c(Cl)c4)c3c2)O[C@@H]2O[C@@]3(C)CC[C@H]4[C@H](C)CC[C@@H]1[C@@]24OO3`, the EC50 was 1.4 nM in [5] and 150000 to 210000 nM in [6].
As to `COc1ccc(Cl)c(Nc2ncnc3cc(OCC4CCN(C)CC4)c(OC)cc23)c1` [AZM-475271], the IC50 in assay [7] was 5 nM.
Regarding `COc1cc2c(Nc3ccc(C(=O)Nc4ccccc4)cc3)ncnc2cc1O`, the inhibition in [8] is 60%.
Consider `C[C@H]1[C@@H](CC(=O)Nc2ccc3ncnc(Nc4ccc(Cl)c(Cl)c4)c3c2)O[C@@H]2O[C@@]3(C)CC[C@H]4[C@H](C)CC[C@@H]1[C@@]24OO3`, for which the EC50 in assay [6] was 150000 to 210000 nM.
For the compound `C=CC(=O)Nc1ccc(Nc2ncnc3cc(OC)c(OCCN4CCOCC4)cc23)cc1`, the IC50 in assay [1] is 105 nM; in assay [9], 4.3 nM; in assay [10] it was 105 nM; in assay [11], over 34000 nM; in assay [12], 4.3 nM.
Take `CN(C)C/C=C/C(=O)Nc1cc2c(Nc3ccc(F)c(Cl)c3)ncnc2cc1O[C@H]1CCOC1` [AFATINIB]: the inhibition at 0.002 µM in assay [13], in assay [14], in assay [15], in [16], in assay [17] and in assay [18] was over 95% each time.
Turning to `COCC(=O)NC/C=C/c1ccc2ncnc(Nc3ccc(Oc4ccc(C)nc4)c(C)c3)c2c1` [CP-724714], the inhibition in vivo at 50 mg/kg in assay [19] amounted to 50%.
With `CN1CCN(CCOc2cc(OC3CCOCC3)c3c(Nc4c(Cl)ccc5c4OCO5)ncnc3c2)CC1` [SARACATINIB], the Activity in assay [20] was found to be 45%.
Regarding `COc1cc2ncnc(-n3ncc4cc(NC(=O)Nc5ccc(C)c(Cl)c5)ccc43)c2cc1OC`, in assay [21], the IC50 amounted to 5 nM. In addition, the inhibition in assay [22] was in the range of 80 to 99.6%.
In the case of `COc1cc2/c(=N/c3ccc(Br)cc3F)nc[nH]c2cc1OCC1CCN(C)CC1` [VANDETANIB], in assay [23], the inhibition in vivo at 50 mg/kg/day worked out at 63%.
Regarding `C=CC(=O)Nc1cc2c(Nc3ccc(Br)cc3F)ncnc2cc1OCCCC(=O)CN(C)C`, the IC50 was found to be 2 nM in [1] and 103 nM in assay [24].
`C[C@@H]1COC(Nc2ccc3ncnc(Nc4ccc(OCc5nccs5)c(Cl)c4)c3c2)=N1` [VARLITINIB] registered an IC50 in assay [2] of 4 nM.

Broadly, the IC50 is the midpoint of a concentration-inhibition curve. As a reminder, the EC50 is the concentration needed to bring the measured effect to its halfway point. In general, inhibition refers to the drop in the measured response relative to a control, in per cent.

For the origin of these results see ChEMBL document CHEMBL4342409, “Recent advancements of 4-aminoquinazoline derivatives as kinase inhibitors and their applications in medicinal chemistry” (Eur J Med Chem, 2019).
